# From patent US5703069A, “Method for inhibiting and controlling viral growth” (Warner-Lambert Company, priority 1996, dated 1997)
# pIC50: −log10 of the molar value. Like-named read-outs stand apart in the source and are kept apart here.
# Assays:
# Vero cells = settings: monkey, 120 h
# Description: This screen was designed to identify compounds which inhibit HSV-1 in phases of its life cycle from adsorption and penetration through late gene expression. The primary screen, AVUS1, involves adding single compounds to a monolayer of Vero cells to a final concentration of 25 μg/mL, then infecting the cells with a recombinant HSV-1, Us3::Tn5-lacZ. This virus contains an insertion of a lacZ gene driven by a viral late promoter in the US3 protein kinase gene of HSV-1. The infection is allowed to proceed for 20 hours, then the cells are lysed with a solution of Triton X-100 and CPRG in "Z" buffer and assayed for β-galactosidase activity. The positive control used is solvent alone without compound, which corresponds to 0% inhibition, and the negative control used is either no virus added to the wells or 0.5% Triton X-100 added to the wells, which corresponds to 100% inhibition. Percent inhibition of a compound is then calculated using these positive and negative controls. […] In AVUS3, the test compound is dissolved in MeOH at 20 mM. A titration of the compound is then assayed in both the same β-galactosidase virus replication inhibition assay and a 5-day XTT toxicity assay. […]
# herpesvirus = assay: SGC anti-herpesvirus assay; type: cell-based; settings: read-out: IC50 Inhibitory Activity (SGC)
# wild type HSV-1 = assay: PRA (plaque reduction assay with wild type HSV-1); type: cell-based; settings: read-out: IC50 Inhibitory Activity (PRA)
# OM-10.1 cells [1] = assay: inhibition of HIV-1 activation / HIV expression in chronically infected OM-10.1 cells (TNF-α induced); type: cell-based, human immunodeficiency virus type 1 (HIV-1); settings: Human immunodeficiency virus 1
# From the text: The cellular pathways involved in mediating the activating signal from the plasma membrane to the integrated virus, resulting in HIV-1 expression, are much less clear. Recently, the development of a reliable and simple system for evaluating compounds that could prevent activation of latent HIV was reported at a National Cooperative Discovery Grant (NCDDG)/AIDS meeting by P. Feorino, S. T. Butera, T. M. Folks, and R. F. Schinazi, Nov. 3-7, 1991. The assay system employed the OM-10.1 cell line, a unique chronically-infected promyelocytic clone which remains CD4+ until HIV-1 activation with tumor necrosis factor-α. The expression of CD4+ on the cell surface and the activity of reverse transcriptase are used as markers for quantitating viral expression. Alternatively, other HIV markers, such as protease activity, which are known to those of skill in the art can be used. OM-10.1 cells remain CD4+ until viral activation and respond to tumor necrosis factor induction, and therefore, these cultures are used to conveniently and rapidly examine pharmacologics for an ability to prevent CD4+ down modulation (decrease in expression of CD4+ on the cell surface) and HIV-1 expression.
# A variety of compounds known to have antiviral properties against either acutely or chronically infected cells were evaluated for their ability to inhibit HIV expression in these OM-10.1 cells. […]
# OM-10.1 cells [2] = settings: NCDDG/AIDS poster, San Diego, Nov. 3-7 (1991); cited from earlier work
# [3] = test system: TPA-mediated CD4 down regulation and HIV expression; settings: Hamamoto et al. 1989; cited from earlier work
compound,measurement,setting,value
"COc1ccc2sc3c(c2c1)SCCNC3=O [2,3-Dihydro-9-methoxy[1]benzothieno[2,3-f]-1,4-thiazepin-5(4H)-one]",CC50,Vero cells,60000 nM
same,pIC50,herpesvirus,6.46
same,pIC50,"wild type HSV-1; Human alphaherpesvirus 1, PRA",6.35
same,pIC50,wild type HSV-1; PRA,6.26
same,pIC50,OM-10.1 cells [1],6.68
"Cc1cn([C@H]2C[C@H](F)[C@@H](CO)O2)c(=O)[nH]c1=O [3'-fluoro-3'-deoxythymidine (FLT), 3'-fluoro-3'-deoxythymidine]",inhibition of the activation of HIV-1 (in words),OM-10.1 cells [2],modest inhibitors of the activation of HIV-1
CCCCCCCCCCCCCC(=O)O[C@@H]1[C@@H](C)[C@@]2(O)[C@@H](C=C(CO)C[C@]3(O)C(=O)C(C)=C[C@@H]23)[C@@H]2C(C)(C)[C@]12OC(C)=O [12-O-tetradecanoylphorbol-13-acetate],effect on CD4 and viral expression in HIV-infected cells (in words),[3],mediates CD4 down regulation and viral expression in HIV-infected cells
CC(=O)N(O)CCCCCNC(=O)CCC(=O)N(O)CCCCCNC(=O)CCC(=O)N(O)CCCCCN [desferrioxamine],inhibition of the activation of HIV-1 (in words),OM-10.1 cells [2],modest inhibitors of the activation of HIV-1
